Experimental data published in ChEMBL document CHEMBL4387706, “Discovery of Novel Spiroindoline Derivatives as Selective Tankyrase Inhibitors” (J Med Chem, 2019).
Values after ≈ are worked out from the molar mass of the structure shown. Active and inactive are the calls of the source. No cut-off for these calls is given here.

Assays:
[1] = species on record: Homo sapiens; test: Effect on hippo signaling protein in human COLO320DM cells assessed as change in CTGF expression at 0.1 to 1 uM measured after 48 hrs by RT-PCR analysis; assay type: cell-based
[2] = Oral bioavailability in Sprague-Dawley rat at 3 mg/kg; assay type: ADME, organism-based; conditions: in vivo
[3] = molecular target: Poly [ADP-ribose] polymerase 1 (Homo sapiens, UniProt P09874)
Description: Inhibition of recombinant human PARP1 expressed in Escherichia coli assessed as reduction in auto-PARylation using histone as substrate measured after 45 mins in presence of biotinylated-NAD+ by ELISA

[4] = Initial plasma concentration in Sprague-Dawley rat at 1 mg/kg, iv; assay type: ADME, organism-based
[5] = Toxicity in mouse xenografted with human COLO320DM cells assessed as body weight loss at 40 mg/kg, ip administered twice daily for 11 days; assay type: organism-based; conditions: in vivo, 264 h
[6] = Protein binding in human serum assessed as unbound fraction at 1 uM measured after 24 hrs by LC-MS/MS analysis; assay type: ADME, cell-free
[7] = Total clearance in Sprague-Dawley rat at 1 mg/kg, iv; assay type: ADME, organism-based; conditions: in vivo
[8] = Permeability of the compound by PAMPA; assay type: ADME; conditions: read-out: permeability
[9] = physchem; conditions: phosphate buffer, pH 7.4
[10] = molecular target: Poly [ADP-ribose] polymerase 2 (Homo sapiens, UniProt Q9UGN5); test: Inhibition of human recombinant N-terminal GST-tagged PARP2 (2 to 583 residues) expressed in baculovirus infected Sf9 cells assessed as reduction in auto-PARylation using histone as substrate measured after 45 mins in presence of biotinylated-NAD+ by ELISA
[11] = AUC (infinity) in Sprague-Dawley rat at 3 mg/kg, po; assay type: ADME, organism-based; parameters: dose 3 mg/kg, time infinity, route oral; conditions: in vivo
[12] = Volume of distribution at steady state in Sprague-Dawley rat at 1 mg/kg, iv; assay type: ADME, organism-based; conditions: in vivo, read-out: Vdss
[13] = in vitro; conditions: mouse, liver microsomes
Description: Stability in mouse liver microsomes assessed as parent compound remaining at 1 uM measured after 30 mins in presence of NADPH by LC-MS/MS analysis

[14] = species on record: Homo sapiens; test: Effect on hippo signaling protein in human COLO320DM cells assessed as change in CYR61 expression at 0.1 to 1 uM measured after 48 hrs by RT-PCR analysis; assay type: cell-based
[15] = species on record: Homo sapiens; test: Effect on hippo signaling protein in human COLO320DM cells assessed as change in AMOTL2 expression at 0.1 to 1 uM measured after 48 hrs by RT-PCR analysis; assay type: cell-based
[16] = Tmax in Sprague-Dawley rat at 3 mg/kg, po; assay type: ADME, organism-based; conditions: in vivo
[17] = Protein binding in mouse serum assessed as unbound fraction at 1 uM measured after 24 hrs by LC-MS/MS analysis; assay type: ADME, cell-free
[18] = in vitro; conditions: human, liver microsomes
Description: Stability in human liver microsomes assessed as parent compound remaining at 1 uM measured after 30 mins in presence of NADPH by LC-MS/MS analysis

[19] = molecular target: T1, Protein mono-ADP-ribosyltransferase PARP10 (Homo sapiens, UniProt Q53GL7); test: Inhibition of human recombinant N-terminal TEV-cleavgae site-fused-FLAG/Polyhis-tagged PARP10 […] expressed in Escherichia coli assessed as reduction in auto-PARylation using histone as substrate measured after 45 mins in presence of biotinylated-NAD+ by ELISA
T1 sequence (Q53GL7 whole entry): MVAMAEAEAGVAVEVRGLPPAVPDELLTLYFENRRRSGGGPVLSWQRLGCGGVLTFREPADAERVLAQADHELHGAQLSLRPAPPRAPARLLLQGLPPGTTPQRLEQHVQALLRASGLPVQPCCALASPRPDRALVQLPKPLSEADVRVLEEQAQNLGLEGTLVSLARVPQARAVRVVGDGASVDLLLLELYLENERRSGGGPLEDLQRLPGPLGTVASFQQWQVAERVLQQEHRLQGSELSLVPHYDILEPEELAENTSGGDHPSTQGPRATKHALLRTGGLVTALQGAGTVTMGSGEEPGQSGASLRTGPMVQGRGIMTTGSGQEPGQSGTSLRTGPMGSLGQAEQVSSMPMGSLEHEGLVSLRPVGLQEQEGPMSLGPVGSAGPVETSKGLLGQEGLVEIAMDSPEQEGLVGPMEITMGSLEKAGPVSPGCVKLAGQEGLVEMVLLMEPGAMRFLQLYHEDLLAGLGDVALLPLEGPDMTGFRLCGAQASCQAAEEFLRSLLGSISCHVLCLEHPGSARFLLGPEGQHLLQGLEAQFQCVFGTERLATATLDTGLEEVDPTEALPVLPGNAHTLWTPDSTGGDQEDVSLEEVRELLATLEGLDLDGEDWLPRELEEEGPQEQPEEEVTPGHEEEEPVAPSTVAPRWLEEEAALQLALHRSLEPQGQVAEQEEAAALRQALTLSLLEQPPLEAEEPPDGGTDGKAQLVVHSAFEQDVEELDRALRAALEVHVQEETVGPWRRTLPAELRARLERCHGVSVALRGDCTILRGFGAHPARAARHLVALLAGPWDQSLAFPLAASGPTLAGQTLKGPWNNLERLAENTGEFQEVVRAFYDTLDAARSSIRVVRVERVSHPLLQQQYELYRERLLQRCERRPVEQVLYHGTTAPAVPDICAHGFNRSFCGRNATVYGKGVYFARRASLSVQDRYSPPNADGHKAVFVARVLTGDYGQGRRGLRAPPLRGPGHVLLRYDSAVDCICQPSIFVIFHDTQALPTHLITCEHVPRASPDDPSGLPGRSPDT

[20] = Half life in Sprague-Dawley rat at 1 mg/kg, iv; assay type: ADME, organism-based; conditions: in vivo
[21] = AUC (infinity) in Sprague-Dawley rat at 1 mg/kg, iv; assay type: ADME, organism-based; parameters: dose 1 mg/kg, route intravenous, time infinity; conditions: in vivo
[22] = Cmax in Sprague-Dawley rat at 3 mg/kg, po; assay type: ADME, organism-based; parameters: dose 3 mg/kg, route oral; conditions: in vivo
[23] = tested on: COLO 320DM; test: Antitumor activity against human COLO320DM cells xenografted in mouse assessed as tumor growth inhibition at 40 mg/kg, ip administered twice daily for 11 days relative to control; assay type: functional; conditions: 264 h, read-out: TGI

Poly [ADP-ribose] polymerase 2, sequence (Q9UGN5 whole entry, the tested form may be a part): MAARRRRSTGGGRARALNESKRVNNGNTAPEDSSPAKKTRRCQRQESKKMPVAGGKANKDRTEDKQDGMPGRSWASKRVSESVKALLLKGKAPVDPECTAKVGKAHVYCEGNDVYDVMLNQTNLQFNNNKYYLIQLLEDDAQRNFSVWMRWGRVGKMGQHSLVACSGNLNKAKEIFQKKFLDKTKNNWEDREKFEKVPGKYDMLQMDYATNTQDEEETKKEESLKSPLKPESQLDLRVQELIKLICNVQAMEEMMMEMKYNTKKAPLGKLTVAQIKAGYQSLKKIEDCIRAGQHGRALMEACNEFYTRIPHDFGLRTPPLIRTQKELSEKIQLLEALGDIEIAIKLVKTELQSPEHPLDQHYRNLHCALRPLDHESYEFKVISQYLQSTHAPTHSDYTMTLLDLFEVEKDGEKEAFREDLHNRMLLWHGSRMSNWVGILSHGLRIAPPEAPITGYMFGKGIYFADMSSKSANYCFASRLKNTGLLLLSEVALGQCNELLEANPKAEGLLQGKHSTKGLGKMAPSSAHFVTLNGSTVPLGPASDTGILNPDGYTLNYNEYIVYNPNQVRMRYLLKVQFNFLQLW
Poly [ADP-ribose] polymerase 1, sequence (P09874 whole entry): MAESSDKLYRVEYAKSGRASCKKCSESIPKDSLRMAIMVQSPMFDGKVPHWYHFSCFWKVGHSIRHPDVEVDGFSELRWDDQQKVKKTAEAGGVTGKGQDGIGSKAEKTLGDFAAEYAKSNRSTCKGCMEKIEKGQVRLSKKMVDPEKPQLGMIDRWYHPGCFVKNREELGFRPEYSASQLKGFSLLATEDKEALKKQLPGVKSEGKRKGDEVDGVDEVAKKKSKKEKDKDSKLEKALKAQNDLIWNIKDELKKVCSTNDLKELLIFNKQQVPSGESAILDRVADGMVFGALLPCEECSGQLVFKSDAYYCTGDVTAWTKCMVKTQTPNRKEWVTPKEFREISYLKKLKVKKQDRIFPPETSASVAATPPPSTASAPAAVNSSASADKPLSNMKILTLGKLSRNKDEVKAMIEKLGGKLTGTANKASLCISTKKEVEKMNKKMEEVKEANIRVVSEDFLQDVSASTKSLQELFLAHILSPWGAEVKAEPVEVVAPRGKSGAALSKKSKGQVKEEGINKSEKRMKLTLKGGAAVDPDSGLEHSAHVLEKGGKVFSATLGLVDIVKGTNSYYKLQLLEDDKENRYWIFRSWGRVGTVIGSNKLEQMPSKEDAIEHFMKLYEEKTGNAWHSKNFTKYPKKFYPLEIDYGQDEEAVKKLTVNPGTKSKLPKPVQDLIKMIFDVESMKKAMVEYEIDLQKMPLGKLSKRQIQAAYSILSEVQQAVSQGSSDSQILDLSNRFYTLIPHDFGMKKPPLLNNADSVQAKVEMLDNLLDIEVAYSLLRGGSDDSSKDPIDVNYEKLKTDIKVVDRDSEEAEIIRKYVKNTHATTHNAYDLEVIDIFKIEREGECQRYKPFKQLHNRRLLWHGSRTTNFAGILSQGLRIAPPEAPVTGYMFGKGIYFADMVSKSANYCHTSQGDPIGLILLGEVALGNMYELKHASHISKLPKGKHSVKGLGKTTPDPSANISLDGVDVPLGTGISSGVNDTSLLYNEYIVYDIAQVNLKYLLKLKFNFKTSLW

CS(=O)(=O)c1ccc(-c2nnc(/C=C/c3nnc(-c4ccc(C#N)cc4)o3)n2-c2ccccc2Cl)nc1
Activity [1]: inactive | bioavailability [2]: 97.8% | IC50 [3]: > 100 µM | C0 [4]: 1540 nM | Activity [5]: Toxic | fraction unbound at 24 h, 1 µM [6]: 0.028 | clearance [7]: 39.7 mL/min/kg | Papp [8]: 11.4 ×10⁻⁶ cm/s | solubility at 1 h, 200 µM [9]: 1.5 µg/mL (≈ 2.83 µM) | IC50 [10]: > 100 µM | AUC(0-inf) [11]: 2.33 µM·h | Vd [12]: 1.79 L/kg | remaining at 0.5 h, 1 µM [13]: 95.8% | Activity [14]: inactive | Activity [15]: inactive | Tmax [16]: 4 h | fraction unbound at 24 h, 1 µM [17]: 0.035 | remaining at 0.5 h, 1 µM [18]: 100% | IC50 [19]: > 100 µM | half-life [20]: 3.3 h | AUC(0-inf) [21]: 0.79 µM·h | Cmax [22]: 230 nM | inhibition in vivo at 40 mg/kg [23]: 48%
